22 compounds from patent US4151279A (priority 1978, dated 1979) can be followed below.

Common to all, as to type: in vivo
For one test, the system named is Phytophthora infestans. Briefly: whole plant or invertebrate. The following applies: in Solanum lycopersicum, 168 h, read-out: % Control.
Another test has as its system Alternaria solani. In words: Tomato Early Blight control (sprayed tomato seedlings). The following applies: 288 h, 250-ppm solution, tomato (cultivar Bonny Best) seedlings, inoculated one day later, about 12 days, relative to untreated check plants. The method, then: Compounds of the invention were tested for the control of the Tomato Early Blight organism, Alternaria solani. Tomato (cultivar Bonny Best) seedlings of 6 to 7 weeks old were used. The tomato plants were sprayed with a 250-ppm solution of the test compound in an acetone-and-water solution containing a small amount of a non-ionic emulsifier. The sprayed plants were inoculated one day later with the organism, dried and maintained at 60-80% relative humidity for about 12 days. Percent disease control was based on the percent disease development on untreated check plants.

A further test deals with Septoria apii. The following applies: celery (Utah) plants 11 weeks old; approximately 14 days; concentration not given; relative to untreated check plants.
The next test has as its system Ersiphe polygoni. Briefly: Powdery Mildew control (sprayed bean seedlings). The conditions noted are these: 250-ppm solution; bean seedlings (cultivar Bountiful); inoculated one day after spray; about 10 days; relative to untreated check plants. On the procedure: The powdery mildew test was made using bean seedlings (cultivar Bountiful) with well-developed primary leaves. The pathogen was Ersiphe polygoni. The bean seedlings were sprayed with a 250-ppm solution of the test compound in an acetone-water mixture containing a non-ionic emulsifier. The treated plants were inoculated one day after spray application of the test compound with the pathogen. The plants were then maintained in a greenhouse at 60-80% relative humidity and at a temperature of 20°-22° C. The rate of infection on the leaves were checked after about 10 days. The percent disease control provided by a given test compound was based on the disease reduction relative to untreated check plants.

The next test has as its system Botrytis cinerea. Briefly: Botrytis cinerea control (preventive, harvested grape berries). The following applies: 250-ppm solution; grape berries (cultivar Emperor); inoculated approximately one day later; 6-9 days after inoculation; relative to non-treated check. On the procedure: Compounds Nos. 1, 8 and 11 were tested as preventive fungicides against Botrytis cinerea on harvested mature grape berries (cultivar Emperor) by the following procedure: 4 grape bunches (trimmed to approximately 50 berries) were sprayed with a 250-ppm solution of the test compound in a solution of water, acetone and a small amount of a non-ionic emulsifier. The sprayed grapes were inoculated approximately one day later with 2- to 3-week-old spores of Botrytis cinerea grown on potato dextrose agar plants. The rate of disease incidence was determined 6-9 days after inoculation, when disease symptoms are fully evident on non-treated check grapes. Infection is determined by actual count of the number of infected berries. The percent disease control provided by a test compound was calculated from the percentage disease reduction based on the non-treated check plants.

The next test concerns Plasmopara viticola. Briefly: Preventive Grape Downy Mildew control (detached grape leaves). The following applies: detached Vitis vinifera cultivar Emperor leaves, seven to nine days after inoculation. The method, then: Compounds Nos. 1, 4, 13 and 19 were tested for the control of the grape downy mildew organism Plasmopara viticola. Detached leaves, between 70 and 85 mm in diameter, of 7-week-old Vitis vinifera cultivar Emperor grape seedlings were used as hosts. The leaves were sprayed with a solution of the test compound in acetone. The sprayed leaves were dried, inoculated with a spore suspension of the organism, placed in a humid environmental chamber and incubated at 18°-22° C. and about 100% relative humidity. Seven to nine days after inoculation, the amount of disease control was determined. The percent disease control provided by a given test compound was based on the percent disease reduction relative to untreated check plants.

Turning to `CCC1(C)OC(=O)CC(C(Cl)(Cl)Cl)N1OC(=O)Nc1ccc(Cl)cc1` (stereo not shown) [Compound 31], the pest or weed control at 250 µg/mL was 27% in the test with Phytophthora infestans and 39% with Alternaria solani. For the same compound, the “% Control” value with Septoria apii came out at 64%.

Turning to `CC1(C)OC(=O)CC(C(Cl)(Cl)Cl)N1OC(=O)Nc1ccccc1F` (stereo not shown) [Compound 2], in the test with Ersiphe polygoni, the “% Control” value came out at 75%. In addition, the pest or weed control at 250 µg/mL with Alternaria solani is 21%.

For the compound `CC1(c2ccccc2)OC(=O)C(Cl)(Cl)C(C(Cl)(Cl)Cl)N1OC(=O)Nc1ccc(Cl)c(Cl)c1` (stereo not shown) [Compound 9], the pest or weed control at 250 µg/mL with Phytophthora infestans is 89%.

As for `O=C(Nc1cccc(Cl)c1)ON1C(C(Cl)(Cl)Cl)C(Cl)(Cl)C(=O)OC12CCCC2` (stereo not shown) [Compound 12], the pest or weed control at 250 µg/mL worked out at 68% in the test with Phytophthora infestans and 33% in the test on Alternaria solani.

Consider `CC1(C)OC(=O)C(Cl)(Cl)C(C(Cl)(Cl)Cl)N1OC(=O)Nc1ccc(Cl)c(Cl)c1` (stereo not shown) [Compound 7], for which the pest or weed control at 250 µg/mL in the test with Phytophthora infestans is 21%; with Alternaria solani it was 18%.

As for `COc1ccc(NC(=O)ON2C(C(Cl)(Cl)Cl)C(Cl)(Cl)C(=O)OC2(C)C)cc1` (stereo not shown) [Compound 18], in the test with Phytophthora infestans, the pest or weed control at 250 µg/mL stood at 95%.

Consider `O=C(Nc1ccc(Cl)cc1)ON1C(C(Cl)(Cl)Cl)C(Cl)(Cl)C(=O)OC12CCCC2` (stereo not shown) [Compound 11], for which the pest or weed control at 250 µg/mL was determined as 94% in the test on Phytophthora infestans and 84% in the test with Alternaria solani. Further, the “% Control” value in the test on Septoria apii was 42%; with Botrytis cinerea, 78%.

Consider `CC(C)C1(C)OC(=O)CC(C(Cl)(Cl)Cl)N1OC(=O)Nc1ccc(Cl)c(Cl)c1` (stereo not shown) [Compound 28], for which the pest or weed control at 250 µg/mL in the test with Phytophthora infestans was determined as 23%.

For the compound `CC1(C)OC(=O)CC(C(Cl)(Cl)Cl)N1OC(=O)Nc1ccc(Cl)cc1` (stereo not shown) [Compound 24], in the test with Ersiphe polygoni, the “% Control” value is 75%.

For `CC1(C)OC(=O)CC(C(Cl)(Cl)Cl)N1OC(=O)Nc1ccccc1` (stereo not shown) [Compound 1], the entries for the “% Control” value in the test on Ersiphe polygoni, in the test with Botrytis cinerea and in the test with Plasmopara viticola (250 ppm) were 91%, 23% and 23%, respectively. For the same compound, in the test with Alternaria solani, the pest or weed control at 250 µg/mL came out at 21%.

In the case of `CC1(C)OC(=O)C(Cl)(Cl)C(C(Cl)(Cl)Cl)N1OC(=O)Nc1cccc(Cl)c1` (stereo not shown) [Compound 10], the pest or weed control at 250 µg/mL came to 68% in the test with Phytophthora infestans and 84% in the test with Alternaria solani.

`O=C(Nc1ccc(Cl)cc1)ON1C(C(Cl)(Cl)Cl)C(Cl)(Cl)C(=O)OC1(c1ccccc1)c1ccccc1` (stereo not shown) [Compound 16] returned a pest or weed control at 250 µg/mL in the test on Alternaria solani of 68%.

For the compound `O=C(Nc1cccc(Cl)c1)ON1C(C(Cl)(Cl)Cl)C(Cl)(Cl)C(=O)OC1(c1ccccc1)c1ccccc1` (stereo not shown) [Compound 15], in the test with Ersiphe polygoni, the “% Control” value is listed as 11%. This compound also returned a pest or weed control at 250 µg/mL with Alternaria solani of 51%.

Regarding `CC1(C)OC(=O)C(Cl)(Cl)C(C(Cl)(Cl)Cl)N1OC(=O)Nc1ccc(Cl)cc1` (stereo not shown) [Compound 14], the pest or weed control at 250 µg/mL in the test on Alternaria solani was found to be 27%.

Consider `Cc1ccc(NC(=O)ON2C(C(Cl)(Cl)Cl)CC(=O)OC2(C)C)cc1` (stereo not shown) [Compound 33], for which, in the test on Phytophthora infestans, the pest or weed control at 250 µg/mL worked out at 21%. In addition, the “% Control” value with Ersiphe polygoni turned out to be 96%.

As for `CC1(c2ccccc2)OC(=O)C(Cl)(Cl)C(C(Cl)(Cl)Cl)N1OC(=O)Nc1ccccc1` (stereo not shown) [Compound 8, N-(phenylcarbamyloxy)-2-methyl-2-phenyl-4-trichloromethyl-5,5-dichloro-6-oxotetrahydro-1,3-oxazine], the pest or weed control at 250 µg/mL with Phytophthora infestans is 97%; with Alternaria solani it was 84%. In addition, the “% Control” value in the test on Septoria apii is reported as 61%; with Botrytis cinerea, 100%.

In the case of `CC(C)C1(C)OC(=O)C(Cl)(Cl)C(C(Cl)(Cl)Cl)N1OC(=O)Nc1ccccc1` (stereo not shown) [Compound 27], the pest or weed control at 250 µg/mL with Phytophthora infestans was 92%.

Regarding `O=C1CC(C(Cl)(Cl)Cl)N(OC(=O)Nc2ccc(Cl)c(Cl)c2)C2(CCCCC2)O1` (stereo not shown) [Compound 5], the pest or weed control at 250 µg/mL in the test with Phytophthora infestans was 56%.

As to `CC1(c2ccccc2)OC(=O)C(Cl)(Cl)C(C(Cl)(Cl)Cl)N1OC(=O)Nc1cccc(Cl)c1` (stereo not shown) [Compound 13], the pest or weed control at 250 µg/mL with Phytophthora infestans came to 89%. For the same compound, in the test on Plasmopara viticola (100 ppm), the “% Control” value came to 73%.

On to `Cc1cccc(C)c1NC(=O)ON1C(C(Cl)(Cl)Cl)C(Cl)(Cl)C(=O)OC1(C)C` (stereo not shown) [Compound 21], for which the pest or weed control at 250 µg/mL in the test on Phytophthora infestans came to 88%.

In the case of `CC1(C)OC(=O)CC(C(Cl)(Cl)Cl)N1OC(=O)Nc1ccc(Cl)c(Cl)c1` (stereo not shown) [Compound 4], in the test with Phytophthora infestans, the pest or weed control at 250 µg/mL is 96%. Moreover, the “% Control” value in the test with Plasmopara viticola (100 ppm) stood at 60%.

Take `CC(C)C1(C)OC(=O)CC(C(Cl)(Cl)Cl)N1OC(=O)Nc1ccc(Cl)cc1` (stereo not shown) [Compound 32]: the pest or weed control at 250 µg/mL came to 56% in the test on Phytophthora infestans and 23% with Alternaria solani. Further, in the test with Ersiphe polygoni, the “% Control” value stood at 100%.
